Experimental data: US7030134B2, “Pyrazolopyridinyl pyridine and pyrimidine therapeutic compounds” (SmithKline Beecham Corporation, priority 2001, dated 2006)

system: HSV-1; assay: HSV-1 replication in infected Vero 76 cells, DNA hybridization capture assay; assay type: cell-based, herpes simplex virus 1; details: Human alphaherpesvirus 1; HSV-1 (MOI=0.001) in Vero 76 cells, 40–48 hours incubation, HSV DNA hybridization chemiluminescence readout; read-out: IC50
Experimental: Vero 76 cells were maintained in MEM with Earle's salts, L-glutamine, 8% FBS (Hyclone, A-1111-L) and 100 units/mL Penicillin-100 μg/mL Streptomycin. For assay conditions, FBS was reduced to 2%. Cells are seeded into 96-well tissue culture plates at a density of 5×10^4 cells/well after being incubated for 45 min at 37° C. in the presence of HSV-1 or HSV-2 (MOI=0.001). Test compounds are added to the wells and the plates are incubated at 37° C. for 40–48 hours. Cell lysates are prepared as follows: media was removed and replaced with 150 μL/well 0.2 N NaOH with 1% Igepal CA 630 or NP-40. Plates were incubated up to 14 days at room temperature in a humidified chamber to prevent evaporation.
For the detection probe, a gel-purified, digoxigenin-labeled, […] PCR fragment of the HSV UL-15 sequence was utilized. PCR conditions included 0.5 μM primers, 180 μM dTTP, 20 μM dUTP-digoxigenin (Boehringer Mannheim 1558706), 200 μM each of dATP, dCTP, and dGTP, 1×PCR Buffer II (Perkin Elmer), 2.5 mM MgCl2, 0.025 units/μL of AmpliTaq Gold polymerase (Perkin Elmer), and 5 ng of gel-purified HSV DNA per 100 μL. Extension conditions were 10 min at 95° C., followed by 30 cycles of 95° C. for 1 min, 55° C. for 30 sec, and 72° C. for 2 min. The amplification was completed with a 10-min incubation at 72° C. Primers were selected to amplify a 728 bp probe spanning a section of the HSV1 UL 15 open reading frame (nucleotides 249–977). Single-stranded transcripts were purified with Promega M13 Wizard kits. The final product was mixed 1:1 with a mixture of 6 M GuSCN, 100 mM EDTA and 200 μg/mL herring sperm DNA and stored at 4° C.
The capture DNA plasmid (HSV UL13 region in pUC) was linearized by cutting with Xba I, denatured for 15 min at 95° C. and diluted immediately into Reacti-Bind DNA Coating Solution (Pierce, 17250, diluted 1:1 with TE buffer, pH 8) at 1 ng/μL 75 μL/well were added to Corning (#3922 or 9690) white 96-well plates and incubated at room temperature for at least 4 hrs before washing twice with 300 μL/well 0.2×SSC/0.05% Tween-20 (SSC/T buffer). The plates were then incubated overnight at room temperature with 150 μL/well 0.2 N NaOH, 1% IGEPAL and 10 μg/mL herring sperm DNA.
Twenty-seven (27) μL of cell lysate was combined with 45 μL of hybridization solution (final concentration:3M GuSCN, 50 mM EDTA, 100 μg/ml salmon sperm DNA, 5× Denhardt's solution, 0.25×APE, and 5 ng of the digoxigenin-labeled detection probe). APE is 1.5 M NH4-acetate, 0.15 M NH4H2 phosphate, and 5 mM EDTA adjusted to pH 6.0. Mineral oil (50 μL) was added to prevent evaporation. The hybridization plates were incubated at 95° C. for 10 minutes to denature the DNA, then incubated at 42° C. overnight. The wells were washed 6× with 300 μL/well SSC/T buffer then incubated with 75 μL/well anti-digoxigenin-HRP-conjugated antibody (Boehringer Mannheim 1207733, 1:5000 in TE) for 30 min at room temperature. The wells were washed 6× with 300 μL/well with PBS/0.05% Tween-20 before 75 μL/well SuperSignal LBA substrate (Pierce) was added. The plates were incubated at room temperature for 30 minutes and chemiluminescence was measured in a Wallac Victor reader.
The following results were obtained for HSV-1.

Row | IC50 | Compound
1 | > 40000 nM | Fc1ccc(-c2nn3c(NC4CCCC4)c(Br)cc(Br)c3c2-c2nc(NC3CCCC3)ncc2Br)cc1 [Example 43, 4,6-Dibromo-3-[5-bromo-2-(cyclopentylamino)pyrimidin-4-yl]-N-cyclopentyl-2-(4-fluorophenyl)pyrazolo[1,5-a]pyridin-7-amine]
2 | 900 nM | Fc1ccc(-c2nn3c(NC4CCCC4)c(Cl)ccc3c2-c2ccnc(NC3CCCC3)n2)cc1 [Example 44, 6-Chloro-N-cyclopentyl-3-[2-(cyclopentylamino)pyrimidin-4-yl]-2-(4-fluorophenyl)pyrazolo[1,5-a]pyridin-7-amine]
3 | 150 nM | COc1cc(NC2CCCC2)n2nc(-c3ccc(F)cc3)c(-c3ccnc(NC4CCCC4)n3)c2c1 [Example 45, N-Cyclopentyl-3-[2-(cyclopentylamino)-4-pyrimidinyl]-2-(4-fluorophenyl)-5-methoxypyrazolo[1,5-a]pyridin-7-amine]
4 | 130 nM | COCCOc1cc(NC2CCCC2)n2nc(-c3ccc(F)cc3)c(-c3ccnc(NC4CCCC4)n3)c2c1 [Example 46, N-Cyclopentyl-3-[2-(cyclopentylamino)-4-pyrimidinyl]-2-(4-fluorophenyl)-5-(2-methoxyethoxy)pyrazolo[1,5-a]pyridin-7-amine]

Further lines, the molecule ahead of its results:

Row | Compound | IC50
5 | COc1ccc(-c2nn3c(NC4CCCC4)cc(Cl)cc3c2-c2ccnc(NC3CC3)n2)cc1 [Example 38, N-{4-[5-Chloro-7-(cyclopentylamino)-2-(4-methoxyphenyl)pyrazolo[1,5-a]pyridin-3-yl]-2-pyrimidinyl}-N-cyclopropylamine] | 340 nM
6 | Oc1ccc(-c2nn3c(NC4CCCC4)cc(Cl)cc3c2-c2ccnc(NC3CC3)n2)cc1 [Example 39, 4-{5-Chloro-7-(cyclopentylamino)-3-[2-(cyclopropylamino)-4-pyrimidinyl]pyrazolo[1,5-a]pyridin-2-yl}phenol] | 2000 nM
7 | Clc1cc(NC2CCCC2)n2nc(-c3ccc(OCC4CC4)cc3)c(-c3ccnc(NC4CC4)n3)c2c1 [Example 40, N-(4-{5-Chloro-7-(cyclopentylamino)-2-[4-(cyclopropyl-methoxy)phenyl]pyrazolo[1,5-a]pyridin-3-yl}-2-pyrimidinyl)-N-cyclopropylamine] | 1300 nM
8 | Fc1ccc(-c2nn3c(Cl)cc(NC4CCCC4)cc3c2-c2ccnc(NC3CCCC3)n2)cc1 [Example 41, 7-Chloro-N-cyclopentyl-3-[2-(cyclopentylamino)pyrimidin-4-yl]-2-(4-fluorophenyl)pyrazolo[1,5-a]pyridin-5-amine] | 1300 nM
9 | Fc1ccc(-c2nn3c(NC4CCCC4)c(Br)cc(Br)c3c2-c2ccnc(NC3CCCC3)n2)cc1 [Example 42, 4,6-Dibromo-N-cyclopentyl-3-[2-(cyclopentylamino)pyrimidin-4-yl]-2-(4-fluorophenyl)pyrazolo[1,5-a]pyridin-7-amine] | 20000 nM

system: not given; assay: not given; details: not given

Row | melting point | Compound
10 | 167 to 169 °C | COc1cc(NC2CCCC2)n2nc(-c3ccc(F)cc3)c(-c3ccnc(NC4CCCC4)n3)c2c1 [Example 45, N-Cyclopentyl-3-[2-(cyclopentylamino)-4-pyrimidinyl]-2-(4-fluorophenyl)-5-methoxypyrazolo[1,5-a]pyridin-7-amine]
